Reference: patent US4996235A, “3,4-diphenylbutanamines” (Eli Lilly and Company, priority 1987, dated 1991)
pIC50: −log10 of the molar value. Structures can show the parent of a compound that is named as a salt.

Tests used:
[1] = tested on: 5HT uptake (rat cerebral cortex synaptosomes); test: Synaptosomal uptake of 3H-serotonin (3H-5HT), inhibition in vitro; format: biochemical, Male Sprague-Dawley rats; conditions: rat cortical synaptosomes, 37° C., 5 min, 50 nM 3H-5HT
Procedure: (§1) This general procedure is set forth by Wong et al., in Drug Development Research 6:397-403 (1985).
(§2) Male Sprague-Dawley rats (110-150 g) from Harlan Industries (Cumberland, Ind.) were fed a Purina Chow ad libitum for at least 3 days before being used in the studies. Rats were killed by decapitation. Whole brains were removed and dissected. Cerebral cortex was homogenized in 9 volumes of a medium containing 0.32 M sucrose and 10 mM glucose. Crude synaptosomal preparations were isolated after differential centrifugation at 1,000 g for 10 min. and 17,000 g for 28 min. The final pellets were suspended in the same medium and kept in ice until use within the same day.
(§3) Synaptosomal uptake of ^3 H-serotonin(^3 H-5-hydroxytryptaine, ^3 H-5HT) and ^14 C-l-norepinephrine (^14 C-NE) was determined as follows. Cortical synaptosomes (equivalent to 1 mg of protein) were incubated at 37° C. for 5 min in 1 ml of Krebs-bicarbonate medium containing also 10 mM glucose, 0.1 mM iproniazid, 1 mM ascorbic acid, 0.17 mM EDTA, 50 nM ^3 H-5HT and 100 nM ^14 C-NE. The reaction mixture was immediately diluted with 2 ml of ice-chilled Krebs-bicarbonate buffer and filtered under vacuum with a cell harvester (Brandel, Gaithersburg, Md.). […] Radioactivity was measured by a liquid scintillation spectrophotometer. […]

[2] = tested on: norepinephrine uptake (rat cerebral cortex synaptosomes); test: Synaptosomal uptake of 14C-l-norepinephrine (14C-NE), inhibition in vitro; format: biochemical, Male Sprague-Dawley rats; conditions: rat cortical synaptosomes, 37° C., 5 min, 100 nM 14C-NE
Procedure: as §1, §2, §3

Row | SMILES | pIC50 [1] | pIC50 [2]
1 | CNCCC(Cc1ccc(C(F)(F)F)cc1)c1ccccc1 (stereo not shown) [Example 1, N-Methyl-3-phenyl-4-(4-trifluoromethylphenyl)-butanaminium chloride] | 6.60 | 5.12
2 | CNCCC(Cc1ccccc1C)c1ccccc1 (stereo not shown) [Example 2, N-Methyl-3-phenyl-4-(2-methylphenyl)-butanaminium tosylate] | 6.48 | 7.00
